# From US6756366B1, “Orally active androgens” (Akzo Nobel N.V., priority 1999, dated 2004)
# What was measured:
# serum LH = experiment: LH suppression assay in mature male castrated rat model; type: in vivo; details: mature male castrated rats, po daily for 4 days in arachis oil suspension, serum LH 3 hours after last oral dose; for ED50: Rattus norvegicus, read-out: ED50 (po) required to suppress serum LH for 50% (±10%)
# Description: The in vivo potency of several androgens of the invention was determined in a mature male castrated rat model, in comparison with MENT.
# In this model serum LH is high (50× fold higher than with intact rats, due to the absence of the negative feedback of testicular testosterone). These rats are po treated for 4 days daily with a given compound of the invention in a suspension fluid of arachisoil. Before dosing and 3 hours after the last oral dose blood is collected via tail vene and in the serum LH is determined. Potency of the androgens (ED50) are expressed as the amount (mg/kg) of androgen which suppresses serum LH for 50% (±10%).
# The rat LH Time-Resolved Immuno Fluorometric Assay (TR-IFMA) has been developed in house using home made reagents, a monoclonal catching antibody directed against the β-subunit of human chorion gonadotrophin (hCG, which cross react with rat β-subunit) and a biotin labelled detecting antibody (rabbit polyclonal antibody directed against the alfa-subunit of recombinant rat LH). Recombinant rat LH was prepared according to the methods described by Hakola et al (1997). In this two-site-IFMA, only intact rat LH is determined by a final incubation with streptavidin-europium. The detection in the IFMA is based on fluorescence of the lanthanide europium during a relative long exitation period. The concentration range of rat LH standard is 0.001-10 ng/ml, for optimal accuracy measurements of serum LH serum samples were diluted 8-times with assay buffer [Hakola, K., Boogaart, P. V., Mulders, J., de Leeuw, R., Schoonen, W., Heyst, J. V., Swolfs, A., Casteren, J. V., Huhtaniemi, I., and Kloosterboer, H. J., Recombinant rat luteinizing hormone; production by Chinese hamster ovary cells, purification and functional characterization, Molecular & Cellular Endocrinology 128, 47 (1997)].
# [1] = t1/2 after incubation with human hepatocytes; type: in vitro ADME; details: male; cryopreserved human hepatocytes in suspension, 10 nM compound, 37° C., sampled at 0.5, 1 and 3 h, LC-MS/MS
# Description: (§1) The half-life of a compound as a result of contact with human hepatocytes holds as a reliable indication of metabolic stability. As it is well known that the absorption of this class of steroids is high, this assay provides an in vitro model for oral activity in humans.
# (§2) Hepatocytes collected from healthy young (25-45 year) male organ donors were cryo preserved in liquid nitrogen and kept there until use. They were thawed at 37° C. in a waterbath, placed immediately on ice, washed twice in one volume of cold (4° C.) incubation medium [William's medium E (without phenol red) with Glutamax I®, gentamicin 50 μg/ml, insulin 1 μM, hydrocortisone hemisuccinate 10 μM, fetal calf serum 0% (v/v)], counted and the viability checked by Trypan blue exclusion. Cells were incubated as suspensions in 12-wells (non-coated) plates at a nominal density of 0.5×10^6 cells/well in 1.5 ml medium at 37° C. with an air/O2/CO2 mixture (55/40/5). The plates were set on an orbital shaker at approximately 10 rpm.
# (§3) The hepatocytes were incubated with 10 nM final concentration of the compound to be tested. The incubations were stopped after 0.5, 1 and 3 h by pipetting the whole incubation mixture into a glass tube and adding one volume of acetone on ice. The acetone was dried under a nitrogen flow at room temperature, the volume adjusted to 1.5 ml and the tubes were centrifuged at 4° C. at 10.000×g for 30 min. The de-proteinized supernatants were collected for LC-MS/MS analysis.
# human hepatocytes = experiment: t1/2 after incubation with human hepatocytes; type: in vitro ADME; details: cryopreserved human hepatocytes in suspension, 10 nM compound, 37° C., sampled at 0.5, 1 and 3 h, LC-MS/MS
# Description: as §1, §2, §3
SMILES,ED50 (serum LH),melting point,half-life at 10 nM [1],also measured
"CC[C@@H]1CC2=CC(=O)CC[C@@H]2[C@@H]2[C@@H]1[C@@H]1CC[C@H](O)[C@@]1(C)C[C@@H]2C [Example 11, (7α,11β,17β)-7-Ethyl-17-hydroxy-11-methylestr-4-en-3-one]",5 mg/kg,,,
CC[C@@H]1CC2=C(CC[C@@H](O)C2)[C@H]2CC[C@]3(C)[C@@H](O)CC[C@H]3[C@H]12,,98 to 100 °C,,
"CC[C@@H]1CC2=CC(=O)CC[C@@H]2[C@H]2CC[C@]3(CC)[C@@H](O)CC[C@H]3[C@H]12 [Example 13, (7α,17β)-7,13-Diethyl-17-hydroxygon-4-en-3-one]",,,48 min,
"C[C@@H]1CC2=CC(=O)CC[C@@H]2[C@H]2CC[C@]3(C)[C@@H](O)CC[C@H]3[C@@H]21 [MENT, 7α-methyl-19-nortestosterone, reference compound]",,,,ED50 (po) required to suppress serum LH for 50% (±10%) (serum LH): 10 mg/kg; t1/2 after incubation with human hepatocytes (human hepatocytes): 20 min
"C[C@]12CC[C@H]3[C@@H]([C@H](C4CC4)CC4=CC(=O)CC[C@@H]43)[C@@H]1CC[C@@H]2O [Example 10, (7α,17β)-7-Cyclopropyl-17-hydroxyestr-4-en-3-one]",,,30 min,
"CC[C@@H]1CC2=CC(=O)CC[C@@H]2[C@H]2CC[C@]3(C)[C@@H](O)CC[C@H]3[C@H]12 [Example 1, (7α,17β)-7-Ethyl-17-hydroxyestr-4-en-3-one]",2.5 mg/kg,142.5 to 143.5 °C,48 min,
"C=C[C@@H]1CC2=CC(=O)CC[C@@H]2[C@H]2CC[C@]3(CC)[C@@H](O)CC[C@H]3[C@@H]21 [Example 14, (7α,17β)-7-Ethenyl-13-ethyl-17-hydroxygon-4-en-3-one]",,,20 min,
"C=C[C@@H]1CC2=CC(=O)CC[C@@H]2[C@H]2CC[C@]3(C)[C@@H](O)CC[C@H]3[C@@H]21 [Example 4, (7α,17β)-7-Ethenyl-17-hydroxyestr-4-en-3-one]",2.5 mg/kg,,,
C=C[C@@H]1CC2=C/C(=N/O)CC[C@@H]2[C@H]2CC[C@]3(C)[C@@H](O)CC[C@H]3[C@@H]21,,206 to 224 °C,,
"C/C=C/[C@@H]1CC2=CC(=O)CC[C@@H]2[C@H]2CC[C@]3(C)[C@@H](O)CC[C@H]3[C@@H]21 [Example 6a, [7α(E),17β]-17-Hydroxy-7-(1-propenyl)estr-4-en-3-one]",,,,t1/2 after incubation with human hepatocytes (human hepatocytes): 30 min
"C=C[C@@H]1CC2=CC(=O)CC[C@@H]2[C@@H]2[C@@H]1[C@@H]1CC[C@H](O)[C@@]1(C)C[C@@H]2C [Example 12, (7α,11β,17β)-7-Ethenyl-17-hydroxy-11-methylestr-4-en-3-one]",5 mg/kg,,,
CC[C@@H]1CC2=CCCC[C@@H]2[C@H]2CC[C@]3(C)[C@@H](O)CC[C@H]3[C@H]12,,155 to 157 °C,,
